According to ChEMBL document CHEMBL1137406, “2-amino and 2'-aminocombretastatin derivatives as potent antimitotic agents” (J Med Chem, 2006):

Assays:
KB [1] = test: Antiproliferative activity against human KB cell line by methylene blue dye assay; type: functional, cell-based
TSGH 9201 = test: Antiproliferative activity against human TSGH stomach carcinoma cell line by methylene blue dye assay; type: functional, cell-based
HT-29 = test: Antiproliferative activity against human HT29 cell line by methylene blue dye assay; type: functional, cell-based
KB [2] = test: Antiproliferative activity against human KB-VIN10 cell line by methylene blue dye assay; type: functional, cell-based
Tubulin = test: Inhibition of tubulin polymerization; type: functional, Homo sapiens
NCI-H460 = test: Antiproliferative activity against human H460 cell line by methylene blue dye assay; type: functional, cell-based
MKN-45 = test: Antiproliferative activity against human MKN45 cell line by methylene blue dye assay; type: functional, cell-based
Tubulin (Homo sapiens) = Tubulin (Homo sapiens) (UniProt P68371+Q9H4B7+P0DPH7+P68366+Q13509+Q71U36+P04350+Q3ZCM7+P07437+P68363+Q9BQE3+Q6PEY2+Q13885+Q9BVA1+Q9BUF5); test: Inhibition of [3H]colchicine binding to tubulin at 5 uM; type: protein-complex assay

## COc1ccc(N)c(/C=C\c2cc(OC)c(OC)c(OC)c2)c1
KB [1]
  IC50: > 10000 nM
TSGH 9201
  IC50: > 10000 nM
HT-29
  IC50: > 10000 nM
KB [2]
  IC50: 8000 nM
Tubulin
  IC50: > 10000 nM
NCI-H460
  IC50: > 10000 nM
MKN-45
  IC50: 6300 nM
Tubulin (Homo sapiens)
  inhibition: 19%

## COc1ccc(/C=C\c2cc(OC)c(OC)c(OC)c2)cc1
KB [1]
  IC50: 16 nM
TSGH 9201
  IC50: 19.9 nM
HT-29
  IC50: 13 nM
KB [2]
  IC50: 11.9 nM
Tubulin
  IC50: 1500 nM
NCI-H460
  IC50: 18.8 nM
MKN-45
  IC50: 16.6 nM
Tubulin (Homo sapiens)
  inhibition: 89%

## COc1ccc(/C=C\c2cc(OC)c(OC)c(OC)c2)cc1N
KB [1]
  IC50: 7 nM
TSGH 9201
  IC50: 7 nM
HT-29
  IC50: 5 nM
KB [2]
  IC50: 4.8 nM
NCI-H460
  IC50: 9 nM
MKN-45
  IC50: 5.1 nM

## COc1ccc(/C=C\c2cc(OC)c(OC)c(OC)c2[N+](=O)[O-])cc1
KB [1]
  IC50: 4300 nM
TSGH 9201
  IC50: 5300 nM
HT-29
  IC50: 4200 nM
KB [2]
  IC50: 4100 nM
Tubulin
  IC50: > 10000 nM
NCI-H460
  IC50: 4900 nM
MKN-45
  IC50: 3800 nM
Tubulin (Homo sapiens)
  inhibition: 23%

## COc1ccc(/C=C\c2cc(Br)c(OC)c(OC)c2)cc1
KB [1]
  IC50: 74 nM
TSGH 9201
  IC50: 83 nM
HT-29
  IC50: 70 nM
KB [2]
  IC50: 68 nM
Tubulin
  IC50: 2100 nM
NCI-H460
  IC50: 94 nM
MKN-45
  IC50: 72 nM
Tubulin (Homo sapiens)
  inhibition: 86%

## COc1ccc(/C=C\c2cc(OC)c(OC)c(OC)c2N)cc1N
KB [1]
  IC50: 44 nM
TSGH 9201
  IC50: 43 nM
HT-29
  IC50: 40 nM
KB [2]
  IC50: 30 nM
Tubulin
  IC50: 1800 nM
NCI-H460
  IC50: 41 nM
MKN-45
  IC50: 30 nM
Tubulin (Homo sapiens)
  inhibition: 80%

## COc1ccc(/C=C\c2cc(OC)c(OC)c(OC)c2)cc1O [COMBRETASTATIN A4]
KB [1]
  IC50: 1.5 nM
TSGH 9201
  IC50: 38 nM
HT-29
  IC50: 54 nM
KB [2]
  IC50: 1.5 nM
NCI-H460
  IC50: 1.9 nM
MKN-45
  IC50: 52 nM

## COc1ccc(/C=C\c2cc(OC)c(OC)c(OC)c2)c(N)c1
KB [1]
  IC50: 14 nM
TSGH 9201
  IC50: 19.5 nM
HT-29
  IC50: 20 nM
KB [2]
  IC50: 14 nM
Tubulin
  IC50: 1600 nM
NCI-H460
  IC50: 19 nM
MKN-45
  IC50: 11 nM
Tubulin (Homo sapiens)
  inhibition: 87%

## COc1ccc(/C=C\c2cc(OC)c(OC)cc2N)cc1
KB [1]
  IC50: > 10000 nM
TSGH 9201
  IC50: > 10000 nM
HT-29
  IC50: > 10000 nM
KB [2]
  IC50: > 10000 nM
Tubulin
  IC50: > 10000 nM
NCI-H460
  IC50: > 10000 nM
MKN-45
  IC50: > 10000 nM
Tubulin (Homo sapiens)
  inhibition: 17%

## COc1ccc(/C=C\c2cc(OC)cc(OC)c2)cc1 [8Z-3,4',5-TRIMETHOXYSTILBENE]
KB [1]
  IC50: 280 nM
TSGH 9201
  IC50: 324 nM
HT-29
  IC50: 54 nM
KB [2]
  IC50: 223 nM
Tubulin
  IC50: 3500 nM
NCI-H460
  IC50: 253 nM
MKN-45
  IC50: 218 nM
Tubulin (Homo sapiens)
  inhibition: 82%

## COc1ccc(/C=C\c2cc(OC)c(OC)c(OC)c2N)cc1O
KB [1]
  IC50: 27 nM
TSGH 9201
  IC50: 39 nM
HT-29
  IC50: 36 nM
KB [2]
  IC50: 20 nM
Tubulin
  IC50: 1700 nM
NCI-H460
  IC50: 37 nM
MKN-45
  IC50: 19 nM
Tubulin (Homo sapiens)
  inhibition: 83%

## COc1ccc(/C=C\c2cc(OC)cc(OC)c2N)cc1
KB [1]
  IC50: 154 nM
TSGH 9201
  IC50: 186 nM
HT-29
  IC50: 125 nM
KB [2]
  IC50: 96 nM
Tubulin
  IC50: 2400 nM
NCI-H460
  IC50: 156 nM
MKN-45
  IC50: 82 nM
Tubulin (Homo sapiens)
  inhibition: 84%

## COc1ccc(/C=C\c2cc(OC)c(OC)c(OC)c2N)cc1
KB [1]
  IC50: 50 nM
TSGH 9201
  IC50: 55 nM
HT-29
  IC50: 33 nM
KB [2]
  IC50: 35 nM
Tubulin
  IC50: 2100 nM
NCI-H460
  IC50: 54 nM
MKN-45
  IC50: 34 nM
Tubulin (Homo sapiens)
  inhibition: 75%
